In the supplement of paper PMC8671470:

Tests used:
Details in all cases: 72 h
[1] = test system: MOLM-13; assay: cell viability (% survival relative to DMSO control, bortezomib = 0%); higher = less cytotoxic
Procedure, shortened: (§1)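 Fifteen myeloid leukaemia cell lines (10 AML, 5 CML) were seeded at a density titrated to the linear growth range into 384-well plates pre-printed with compounds at 1, 10, 100, 1000 or 10000 nM in duplicate. Plates were incubated for 72 h at 37 °C with 5% CO2. Viability was then read by CellTiter-Glo luminescence. Each value is percent survival averaged over the duplicates, with vehicle set to 100% and a 10 µM positive control to 0%.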

[2] = test system: MV4-11; assay: as above
Procedure, shortened: as §1

[3] = test system: THP-1; assay: as above
Procedure, shortened: as §1

[4] = test system: KG-1; assay: as above
Procedure, shortened: as §1

[5] = test system: myeloid leukemia patient primary cells Pat.15; assay: cell viability (% survival relative to DMSO control); higher = less cytotoxic
Procedure, shortened: (§2)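 Mononuclear cells from patients with AML or CML were thawed, purified on Ficoll and placed in RPMI 1640 with 10% FBS at 10,000 cells/well on 384-well plates. The plates came pre-printed with 70 compounds at five tenfold concentrations spanning 1–10,000 nM, in duplicate, and cells were exposed for 72 h. CellTiter-Glo gave viability, scaled between DMSO wells and wells with 10 μM proteasome inhibitor. Where reported, area under the curve was obtained from log-logistic fits with four parameters using the drc and PharmacoGx R packages.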

[6] = test system: myeloid leukemia patient primary cells Pat.3; assay: as above
Procedure, shortened: as §2

[7] = test system: myeloid leukemia patient primary cells Pat.13; assay: as above
Procedure, shortened: as §2

[8] = test system: myeloid leukemia patient primary cells Pat.12; assay: as above
Procedure, shortened: as §2

[9] = test system: myeloid leukemia patient primary cells Pat.2; assay: as above
Procedure, shortened: as §2

[10] = test system: myeloid leukemia patient primary cells Pat.10; assay: as above
Procedure, shortened: as §2

[11] = test system: myeloid leukemia patient primary cells Pat.15; assay: area under dose-response curve (viability, 1 nM-10 uM) (fraction (0-1)); higher = more sensitive
Experimental: (§3)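 AUC (0–1, higher = more sensitive) of the 5-point dose–response (1 nM–10 µM, 72 h, CellTiter-Glo) in primary AML/CML patient mononuclear cells. 0.030103 is the floor for inactive compounds.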

[12] = test system: myeloid leukemia patient primary cells Pat.4; assay: as above
Experimental: as §3

[13] = test system: myeloid leukemia patient primary cells Pat.13; assay: as above
Experimental: as §3

[14] = test system: myeloid leukemia patient primary cells Pat.1; assay: as above
Experimental: as §3

[15] = test system: myeloid leukemia patient primary cells Pat.12; assay: as above
Experimental: as §3

[16] = test system: myeloid leukemia patient primary cells Pat.10; assay: as above
Experimental: as §3

[17] = test system: myeloid leukemia patient primary cells Pat.8; assay: as above
Experimental: as §3

[18] = test system: myeloid leukemia patient primary cells Pat.9; assay: as above
Experimental: as §3

[19] = test system: myeloid leukemia patient primary cells Pat.14; assay: as above
Experimental: as §3

[20] = test system: myeloid leukemia patient primary cells Pat.11; assay: as above
Experimental: as §3

[21] = test system: myeloid leukemia patient primary cells Pat.5; assay: as above
Experimental: as §3

[22] = test system: myeloid leukemia patient primary cells Pat.7; assay: as above
Experimental: as §3

Cc1coc2c1C(=O)C(=O)c1c-2ccc2c1CCCC2(C)C [Tanshinone IIA]
cell viability ([1]; 1 nM): 87.8%
cell viability ([1]; 10 nM): 90.9%
cell viability ([1]; 100 nM): 106%
cell viability ([1]; 1000 nM): 101%
cell viability ([1]; 10000 nM): 89.6%
cell viability ([2]; 1 nM): 91.9%
cell viability ([2]; 10 nM): 100%
cell viability ([2]; 100 nM): 93.1%
cell viability ([2]; 1000 nM): 101%
cell viability ([2]; 10000 nM): 80.3%
cell viability ([3]; 1 nM): 98.4%
cell viability ([3]; 10 nM): 110%
cell viability ([3]; 100 nM): 104%
cell viability ([3]; 1000 nM): 92.4%
cell viability ([3]; 10000 nM): 62.5%
cell viability ([4]; 1 nM): 106%
cell viability ([4]; 10 nM): 97.7%
cell viability ([4]; 100 nM): 94.8%
cell viability ([4]; 1000 nM): 102%
cell viability ([4]; 10000 nM): 76.6%

Cc1cn([C@H]2C[C@H](O)[C@@H](COP(=O)(O)OP(=O)(O)O)O2)c(=O)[nH]c1=O [Thymidine diphosphate]
cell viability ([1]; 1 nM): 108%
cell viability ([1]; 10 nM): 92.1%
cell viability ([1]; 100 nM): 110%
cell viability ([1]; 1000 nM): 105%
cell viability ([1]; 10000 nM): 103%
cell viability ([2]; 1 nM): 95.7%
cell viability ([2]; 10 nM): 87.8%
cell viability ([2]; 100 nM): 98.6%
cell viability ([2]; 1000 nM): 102%
cell viability ([2]; 10000 nM): 96.4%
cell viability ([3]; 1 nM): 99%
cell viability ([3]; 10 nM): 92.5%
cell viability ([3]; 100 nM): 95.8%
cell viability ([3]; 1000 nM): 95.7%
cell viability ([3]; 10000 nM): 99.3%
cell viability ([4]; 1 nM): 101%
cell viability ([4]; 10 nM): 95.2%
cell viability ([4]; 100 nM): 97.5%
cell viability ([4]; 1000 nM): 95.6%
cell viability ([4]; 10000 nM): 104%

CN(C)c1cc(NC(=O)CNC(C)(C)C)c(O)c2c1C[C@H]1C[C@H]3[C@H](N(C)C)C(=O)C(C(N)=O)C(=O)[C@@]3(O)C(=O)C1C2=O (some centres not stated) [Tigecycline]
cell viability ([1]; 1 nM): 119%
cell viability ([1]; 10 nM): 84%
cell viability ([1]; 100 nM): 90.8%
cell viability ([1]; 1000 nM): 96%
cell viability ([1]; 10000 nM): 88.9%
cell viability ([2]; 1 nM): 117%
cell viability ([2]; 10 nM): 89.3%
cell viability ([2]; 100 nM): 101%
cell viability ([2]; 1000 nM): 88.3%
cell viability ([2]; 10000 nM): 93.2%
cell viability ([3]; 1 nM): 107%
cell viability ([3]; 10 nM): 100%
cell viability ([3]; 100 nM): 104%
cell viability ([3]; 1000 nM): 105%
cell viability ([3]; 10000 nM): 105%
cell viability ([4]; 1 nM): 111%
cell viability ([4]; 10 nM): 82.5%
cell viability ([4]; 100 nM): 104%
cell viability ([4]; 1000 nM): 94.8%
cell viability ([4]; 10000 nM): 66.5%

COc1ccc2c(C(=S)N(C)CC(=O)O)cccc2c1C(F)(F)F [Tolrestat]
cell viability ([1]; 1 nM): 105%
cell viability ([1]; 10 nM): 149%
cell viability ([1]; 100 nM): 63.3%
cell viability ([1]; 1000 nM): 105%
cell viability ([1]; 10000 nM): 88.5%
cell viability ([2]; 1 nM): 97.4%
cell viability ([2]; 10 nM): 109%
cell viability ([2]; 100 nM): 98.2%
cell viability ([2]; 1000 nM): 101%
cell viability ([2]; 10000 nM): 86.3%
cell viability ([3]; 1 nM): 93.9%
cell viability ([3]; 10 nM): 94.8%
cell viability ([3]; 100 nM): 103%
cell viability ([3]; 1000 nM): 104%
cell viability ([3]; 10000 nM): 94.4%
cell viability ([4]; 1 nM): 91.8%
cell viability ([4]; 10 nM): 95.3%
cell viability ([4]; 100 nM): 95.6%
cell viability ([4]; 1000 nM): 93.5%
cell viability ([4]; 10000 nM): 101%

CCC(=O)N1CCN(c2ccc(-n3c(=O)ccc4cnc5ccc(-c6cnc7ccccc7c6)cc5c43)cc2C(F)(F)F)CC1 [Torin1]
cell viability ([1]; 1 nM): 93%
cell viability ([1]; 10 nM): 77.8%
cell viability ([1]; 100 nM): 70%
cell viability ([1]; 1000 nM): 16.2%
cell viability ([1]; 10000 nM): 12.9%
cell viability ([2]; 1 nM): 88.9%
cell viability ([2]; 10 nM): 95.7%
cell viability ([2]; 100 nM): 90.8%
cell viability ([2]; 1000 nM): 26.1%
cell viability ([2]; 10000 nM): 11.1%
cell viability ([3]; 1 nM): 104%
cell viability ([3]; 10 nM): 98.5%
cell viability ([3]; 100 nM): 96.9%
cell viability ([3]; 1000 nM): 58.9%
cell viability ([3]; 10000 nM): 33.9%
cell viability ([4]; 1 nM): 94.9%
cell viability ([4]; 10 nM): 89.7%
cell viability ([4]; 100 nM): 81.5%
cell viability ([4]; 1000 nM): 29.1%
cell viability ([4]; 10000 nM): 26%
cell viability ([5]; 1 nM): 80.6%
cell viability ([5]; 10 nM): 55.9%
cell viability ([5]; 100 nM): 20.2%
cell viability ([5]; 1000 nM): 14.2%
cell viability ([5]; 10000 nM): 12.1%
cell viability ([6]; 1 nM): 96.1%
cell viability ([6]; 10 nM): > 100%
cell viability ([6]; 100 nM): 93.2%
cell viability ([6]; 1000 nM): 66.8%
cell viability ([6]; 10000 nM): 62.1%
cell viability ([7]; 1 nM): 91.5%
cell viability ([7]; 10 nM): 77.7%
cell viability ([7]; 100 nM): 75.2%
cell viability ([7]; 1000 nM): 43%
cell viability ([7]; 10000 nM): 51%
cell viability ([8]; 1 nM): 90.6%
cell viability ([8]; 10 nM): 91.5%
cell viability ([8]; 100 nM): 92.3%
cell viability ([8]; 1000 nM): 91.5%
cell viability ([8]; 10000 nM): 89.5%
cell viability ([9]; 1 nM): 92.5%
cell viability ([9]; 10 nM): 94.3%
cell viability ([9]; 100 nM): 74.2%
cell viability ([9]; 1000 nM): 62.8%
cell viability ([9]; 10000 nM): 64.2%
cell viability ([10]; 1 nM): 63.9%
cell viability ([10]; 10 nM): 96.5%
cell viability ([10]; 100 nM): 30%
cell viability ([10]; 1000 nM): 18.6%
cell viability ([10]; 10000 nM): 9.9%
area under dose-response curve [11]: 0.614
area under dose-response curve [12]: 0.322
area under dose-response curve [13]: 0.218
area under dose-response curve [14]: 0.457
area under dose-response curve [15]: < 0.0301
area under dose-response curve [16]: 0.477
area under dose-response curve [17]: 0.0632
area under dose-response curve [18]: 0.36
area under dose-response curve [19]: 0.225
area under dose-response curve [20]: 0.183
area under dose-response curve [21]: 0.802
area under dose-response curve [22]: 0.195

NC(=O)c1cccc(-c2cccc(OC(=O)NC3CCCCC3)c2)c1 [URB-597]
cell viability ([1]; 1 nM): 99.9%
cell viability ([1]; 10 nM): 93.7%
cell viability ([1]; 100 nM): 105%
cell viability ([1]; 1000 nM): 93.8%
cell viability ([1]; 10000 nM): 117%
cell viability ([2]; 1 nM): 96.4%
cell viability ([2]; 10 nM): 96.5%
cell viability ([2]; 100 nM): 109%
cell viability ([2]; 1000 nM): 99.6%
cell viability ([2]; 10000 nM): 89.5%
cell viability ([3]; 1 nM): 98.5%
cell viability ([3]; 10 nM): 93.8%
cell viability ([3]; 100 nM): 105%
cell viability ([3]; 1000 nM): 99.1%
cell viability ([3]; 10000 nM): 102%
cell viability ([4]; 1 nM): 102%
cell viability ([4]; 10 nM): 103%
cell viability ([4]; 100 nM): 102%
cell viability ([4]; 1000 nM): 92.8%
cell viability ([4]; 10000 nM): 101%

O=C1O[C@H]([C@@H](O)CO)C(O)=C1O [Vitamin C (ascorbate)]
cell viability ([1]; 1 nM): 101%
cell viability ([1]; 10 nM): 103%
cell viability ([1]; 100 nM): 91.6%
cell viability ([1]; 1000 nM): 94.2%
cell viability ([1]; 10000 nM): 107%
cell viability ([2]; 1 nM): 102%
cell viability ([2]; 10 nM): 102%
cell viability ([2]; 100 nM): 111%
cell viability ([2]; 1000 nM): 111%
cell viability ([2]; 10000 nM): 92.1%
cell viability ([3]; 1 nM): 96.4%
cell viability ([3]; 10 nM): 100%
cell viability ([3]; 100 nM): 103%
cell viability ([3]; 1000 nM): 103%
cell viability ([3]; 10000 nM): 99.9%
cell viability ([4]; 1 nM): 112%
cell viability ([4]; 10 nM): 103%
cell viability ([4]; 100 nM): 118%
cell viability ([4]; 1000 nM): 97.5%
cell viability ([4]; 10000 nM): 106%
